As usually defined, the EC50 is the concentration needed to bring the measured effect to its halfway point.

The values below come from article PMC11187126, “Structure and dynamics of the pyroglutamylated RF-amide peptide QRFP receptor GPR103” (Nature Communications, 2024).

The test deals with T1, GPR103 E203^ECL2A (Homo sapiens, UniProt Q96P65, E203A).
T1 construct: we used human full-length QRFPR-encoding plasmids; expressed in transfected cells; host or cells: HEK293 cells, pCAGGS vector
T1 sequence (Q96P65 1-431 E203A): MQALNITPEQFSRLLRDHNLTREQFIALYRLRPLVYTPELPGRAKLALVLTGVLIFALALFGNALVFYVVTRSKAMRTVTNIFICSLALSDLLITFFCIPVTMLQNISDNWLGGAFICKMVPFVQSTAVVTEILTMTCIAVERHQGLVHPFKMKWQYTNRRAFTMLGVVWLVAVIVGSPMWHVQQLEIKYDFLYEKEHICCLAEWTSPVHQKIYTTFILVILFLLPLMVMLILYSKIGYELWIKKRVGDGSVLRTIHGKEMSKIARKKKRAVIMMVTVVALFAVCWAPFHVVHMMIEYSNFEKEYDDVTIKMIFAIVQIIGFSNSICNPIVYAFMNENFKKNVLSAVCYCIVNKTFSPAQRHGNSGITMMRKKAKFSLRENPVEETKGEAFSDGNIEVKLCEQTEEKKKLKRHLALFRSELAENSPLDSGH
Briefly: TGFα shedding assay; Exp. level >WT (1:1). Format: cell-based. The procedure:
For the TGFα shedding assay and the flow cytometry analysis, we used human full-length QRFPR-encoding plasmids. Specifically, GPR103 was N-terminally modified with an HA signal sequence followed by a FLAG epitope and then a flexible linker ([…]; the FLAG epitope is underlined) and inserted into the pCAGGS vector. Plasmid encoding GPR103 mutants were generated using Quickchange Site-Directed Mutagensis kit (Agilent).
The TGFα shedding assay was performed as described previously with minor modifications. Plasmid transfection was performed in a 6-well plate with a mixture of 500 ng (per well in a 6-well plate) AP-TGFα-encoding plasmid and 200 ng GPR103-encoding plasmid. After 1-day culture, the transfected cells were harvested by trypsinization, pelleted by centrifugation at 190 × g for 5 min, and washed once with 5 mM HEPES (pH 7.4)-containing Hank’s Balanced Salt Solution (HBSS). After centrifugation, the cells were resuspended in 8 mL of the HEPES-containing HBSS. The cell suspension was seeded in a 96-well culture plate (cell plate) at a volume of 90 μL (per well hereafter) and incubated in a 37 °C incubator with 5% CO2 for 30 min. […] After spinning the cell plates at 190 × g for 2 min, 80 μL of conditioned media was transferred to an empty 96-well plate (conditioned media (CM) plate). Then, 80 μL of AP reaction solution (10 mM p-nitrophenylphosphate (p-NPP), 120 mM Tris-HCl (pH 9.5), 40 mM NaCl, and 10 mM MgCl2) was dispensed into the cell plates and the CM plates. Absorbance at 405 nm of the plates was measured using a microplate reader (SpectraMax 340 PC384, Molecular Devices) before and after 1-h incubation at room temperature. Ligand-induced AP-TGFα release was calculated by subtracting spontaneous AP-TGFα release signal from ligand-induced AP-TGFα release signal. The AP-TGFα release signals were fitted to a four-parameter sigmoidal concentration–response curve, using the Prism 10 software (GraphPad Prism). For each replicate experiment, the pEC50 parameter (negative logarithmic values of EC50 values) of the individual GPR103 mutants were normalized to that of the wild-type GPR103 performed in parallel, and resulting ∆pEC50 values were used to denote ligand response activity of the mutants. […]
Exp. le vel: WT (1:5 0)Exp. le vel: WT (1:5 0)Exp. le vel: WT (1:5 0)Exp. le vel: WT (1:2 0)Exp. le vel: WT (1:2 0)Exp. le vel: WT (1:1 0) […]
L1 4N - t e r mA F2 5N - t e r mA I 2 6N - t e r mA Y 2 9N - t e r mA C 9 82 .5 7A T10 22 .6 1A Exp . l eve l: WT (1 :5)Exp . l evel : >WT (1 :1)Exp. le vel: WT (1:2 0)Exp. le vel: WT (1:2 0)Exp. le vel: WT (1:5 0)Exp . l eve l: WT (1 :1) […]
Exp. le vel: WT (1:1 0)Exp. le vel: WT (1:2 0) C 1 1 83 .2 5AExp. le vel: WT (1:5 0)Exp. le vel: WT (1:5 0)Exp. le vel: WT (1:2 0)Exp . l eve l: WT (1 :5) […]
Exp. le vel: WT (1:5 0)Exp. le vel: WT (1:1 0)Exp. le vel: WT (1:5 0) E203ECL2AExp . l evel : >WT (1 :1)Exp. le vel: WT (1:5 0)Exp. le vel: WT (1:5 0) […]
Exp . l eve l: WT (1 :1) F28Exp. le vel: WT (1:5 0) C 2 8 56 .4 7AExp. le vel: WT (1:2 0) WExp. le vel: WT (1:2 0) F28Exp. le vel: WT (1:5 0)Exp . l evel : >WT (1 :1) […]
Exp. le vel: WT (1:5 0)Exp. le vel: WT (1:5 0) C 3 2 77 .4 8AExp . l eve l: WT (1 :5)Exp . l evel : >WT (1 :1)Exp . l evel : >WT (1 :1) […]
Suppl eme nt ary Figure 1 | Mutational analysis of GPR103. […]
mutants. Data are presented as mean values ± SEM, normally n=3-5; dots), each performed in triplicate. b-d Cell-surface expression (b) and QRFP26-in-duced activation of GPR103 (c, d) were analyzed by the flow cytometry and the TGFα shedding assay, respectively. From the concentration–response curves (a), Emax (c) and ΔpEC50 (d) values relative to the wild type were calculated. Colors in the mutant bars indicate an expression level matching to that of titrated wild type. Statistical analyses were performed using the ordinary one-way ANOVA followed by Dunnett tests with the expression-matched […]

Where two headings read alike, the source gives them in different places. No end group written: not given here.

TSGPLGNLAEELNGYSRKKGGFSFRF-NH2 [QRFP26]: the Emax was 96.63 % WT (Exp. #1); 100.59 % WT (Exp. #2); 99.12 % WT (Exp. #3); 98.8% (mean, read-out: Emax); 101 ± 0.94% (n = 3, read-out: Emax). For the setting “n = 3”, this substance had an EC50 of 288 nM.
